Source: patent US8247211B2, “Glycopeptide antibiotics” (American Cyanamid Company, priority 2001, dated 2012)
In brackets after ≈: the same amount, converted by molar mass.

Experiments:
Enterococcus sp. = test: In vitro antibacterial evaluation: minimum inhibitory concentration (MIC), broth dilution method; assay type: cell-based; settings: broth dilution, 5×10^5 CFU/mL, 18 hours at 35° C.
Procedure, shortened: (§1)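 Susceptibility determined by NCCLS-recommended broth dilution (M7-A2), Muller-Hinton II […]. Concentration span 64-0.06 μg/mL, inoculum 5×10^5 CFU/mL. Isolates include strains resistant to methicillin, penicillin and/or vancomycin.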

Escherichia coli = test: as above; assay type: cell-based; settings: 5×10^5 CFU/mL, 18 hours at 35° C.
Procedure, shortened: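 Values are minimum inhibitory concentrations, meaning the smallest antibiotic concentration that stops growth of the organism. They come from broth dilution in Muller-Hinton II […] per NCCLS guidance (M7-A2), using 5×10^5 CFU/mL and concentrations from 64 to 0.06 μg/mL.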

Staphylococcus sp. = test: as above; assay type: cell-based; settings: for MIC Staphylococcus aureus (ATCC 29213): strain ATCC 29213; for MIC Staphylococcus aureus (GC 1131): strain GC 1131; for MIC Staphylococcus aureus (GC 3051): strain GC 3051; for MIC Staphylococcus aureus (GC 3053): strain GC 3053; for MIC Staphylococcus aureus (GC 4541): strain GC 4541; for MIC Staphylococcus aureus (GC 4542): strain GC 4542; for MIC Staphylococcus aureus-SMITH (GC 4543): strain GC 4543; for MIC Staphylococcus aureus (GC 4544): strain GC 4544; for MIC Staphylococcus aureus (GC 4545): strain GC 4545; for MIC Staphylococcus haemolyticus (GC 4546): strain GC 4546; for MIC Coagulase Negative Staphylococcus (GC 4547): strain GC 4547; for MIC Coagulase Negative Staphylococcus (GC 4548): strain GC 4548; for MIC Coagulase Negative Staphylococcus (GC 4549): strain GC 4549; for MIC Coagulase Negative Staphylococcus (GC 4551): strain GC 4551; for MIC Coagulase Negative Staphylococcus (GC 6257): strain GC 6257
Procedure, shortened: as §1

Streptococcus sp. = test: as above; assay type: cell-based; settings: broth dilution, 5×10^5 CFU/mL, 18 hours at 35° C.
Procedure, shortened: as §1

[1] = test system: Enterococcus faecalis (GC 6189), vancomycin resistant strain; test: Acute lethal infection in mice (ED50); assay type: in vivo; settings: female CD-1 mice, intraperitoneal challenge, intravenous dose 30 min. after infection, 7 day survival ratios
Procedure, shortened: (§2)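 IP bacterial challenge, female CD-1 mice; inoculum lethal to untreated controls in 24-48 hr. IV dosing in saline or 5% dextrose 30 min post-infection, 5 mice/dose. ED50 from 7-day survival, 3 tests pooled.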

[2] = test system: Staphylococcus aureus-SMITH (GC 4543); test: Acute lethal infection in mice (ED50); assay type: in vivo; settings: female CD-1 mice, intraperitoneal challenge, intravenous dose 30 min. after infection, 7 day survival ratios
Procedure, shortened: as §2

[3] = broth dilution, 18 hours at 35° C.

Cc1ccc(CC2OCC3OC(OC4C(CO)OC(Oc5ccc(CC6NC(=O)C(C(C)c7ccccc7)NC(=O)CNC(=O)C(CO)NC(=O)C(C(O)C7CNC(=N)N7C7OC(CO)C(O)C(O)C7O)NC(=O)C(C(O)C7CNC(=N)N7)NC6=O)cc5)C(O)C4O)C(O)C(O)C3O2)cc1 (stereo not drawn) [Example 119, Cyclo[glycyl-β-methylphenylalanyl-O-[4-O-[4,6-O-(4-methylphenethylidene)hexopyranosyl]-hexopyranosyl]tyrosyl-3-(2-iminoimidazolidin-4-yl)seryl-3-(3-hexopyranosyl-2-iminoimidazolidin-4-yl)serylseryl]]
MIC Enterococccus avium (GC 4558) (Enterococcus sp.): 4 µg/mL (≈ 2.83 µM)
MIC Enterococccus faecalis (ATCC 29212) (Enterococcus sp.): 2 µg/mL (≈ 1.42 µM)
MIC Enterococccus faecalis (GC 2691) (Enterococcus sp.): 2 µg/mL (≈ 1.42 µM)
MIC Enterococccus faecalis (GC 3059) (Enterococcus sp.): >64 µg/mL
MIC Enterococccus faecalis (GC 4552) (Enterococcus sp.): 2 µg/mL (≈ 1.42 µM)
MIC Enterococccus faecalis (GC 4553) (Enterococcus sp.): 4 µg/mL (≈ 2.83 µM)
MIC Enterococccus faecalis (GC 4554) (Enterococcus sp.): 2 µg/mL (≈ 1.42 µM)
MIC Enterococccus faecalis (GC 6189) (Enterococcus sp.): 2 µg/mL (≈ 1.42 µM)
MIC Enterococccus faecium (GC 2243) (Enterococcus sp.): 4 µg/mL (≈ 2.83 µM)
MIC Enterococccus faecium (GC 4556) (Enterococcus sp.): 2 µg/mL (≈ 1.42 µM)
MIC Enterococccus faecium (GC 4557) (Enterococcus sp.): 1 µg/mL (≈ 0.708 µM)
MIC Enterococcus faecalis (GC 2242) (Enterococcus sp.): 2 µg/mL (≈ 1.42 µM)
MIC Escherichia coli (ATCC 25922) (Escherichia coli): 32 µg/mL (≈ 22.7 µM)
MIC Escherichia coli (GC 4559) (Escherichia coli): 32 µg/mL (≈ 22.7 µM)
MIC Escherichia coli (GC 4560) (Escherichia coli): 1 µg/mL (≈ 0.708 µM)
MIC Staphylococcus aureus (ATCC 29213) (Staphylococcus sp.): 1 µg/mL (≈ 0.708 µM)
MIC Staphylococcus aureus (ATCC 29213) (Staphylococcus sp.; [3]): 1 µg/mL (≈ 0.708 µM)
MIC Staphylococcus aureus (GC 1131) (Staphylococcus sp.): 1 µg/mL (≈ 0.708 µM)
MIC Staphylococcus aureus (GC 1131) (Staphylococcus sp.; [3]): 1 µg/mL (≈ 0.708 µM)
MIC Staphylococcus aureus (GC 3051) (Staphylococcus sp.): 1 µg/mL (≈ 0.708 µM)
MIC Staphylococcus aureus (GC 3051) (Staphylococcus sp.; [3]): 1 µg/mL (≈ 0.708 µM)
MIC Staphylococcus aureus (GC 3053) (Staphylococcus sp.): 2 µg/mL (≈ 1.42 µM)
MIC Staphylococcus aureus (GC 3053) (Staphylococcus sp.; [3]): 2 µg/mL (≈ 1.42 µM)
MIC Staphylococcus aureus (GC 4541) (Staphylococcus sp.): 1 µg/mL (≈ 0.708 µM)
MIC Staphylococcus aureus (GC 4541) (Staphylococcus sp.; [3]): 1 µg/mL (≈ 0.708 µM)
MIC Staphylococcus aureus (GC 4542) (Staphylococcus sp.): 1 µg/mL (≈ 0.708 µM)
MIC Staphylococcus aureus (GC 4542) (Staphylococcus sp.; [3]): 1 µg/mL (≈ 0.708 µM)
MIC Staphylococcus aureus-SMITH (GC 4543) (Staphylococcus sp.; 18 hours at 35° C.): 1 µg/mL (≈ 0.708 µM)
MIC Staphylococcus aureus-SMITH (GC 4543) (Staphylococcus sp.; [3]): 1 µg/mL (≈ 0.708 µM)
MIC Staphylococcus aureus (GC 4544) (Staphylococcus sp.): 1 µg/mL (≈ 0.708 µM)
MIC Staphylococcus aureus (GC 4544) (Staphylococcus sp.; [3]): 1 µg/mL (≈ 0.708 µM)
MIC Staphylococcus aureus (GC 4545) (Staphylococcus sp.): 1 µg/mL (≈ 0.708 µM)
MIC Staphylococcus aureus (GC 4545) (Staphylococcus sp.; [3]): 1 µg/mL (≈ 0.708 µM)
MIC Staphylococcus haemolyticus (GC 4546) (Staphylococcus sp.): 1 µg/mL (≈ 0.708 µM)
MIC Staphylococcus haemolyticus (GC 4546) (Staphylococcus sp.; [3]): 1 µg/mL (≈ 0.708 µM)
MIC Coagulase Negative Staphylococcus (GC 4547) (Staphylococcus sp.): 1 µg/mL (≈ 0.708 µM)
MIC Coagulase Negative Staphylococcus (GC 4547) (Staphylococcus sp.; [3]): 1 µg/mL (≈ 0.708 µM)
MIC Coagulase Negative Staphylococcus (GC 4548) (Staphylococcus sp.): 1 µg/mL (≈ 0.708 µM)
MIC Coagulase Negative Staphylococcus (GC 4548) (Staphylococcus sp.; [3]): 1 µg/mL (≈ 0.708 µM)
MIC Coagulase Negative Staphylococcus (GC 4549) (Staphylococcus sp.): 1 µg/mL (≈ 0.708 µM)
MIC Coagulase Negative Staphylococcus (GC 4549) (Staphylococcus sp.; [3]): 1 µg/mL (≈ 0.708 µM)
MIC Coagulase Negative Staphylococcus (GC 4551) (Staphylococcus sp.): 1 µg/mL (≈ 0.708 µM)
MIC Coagulase Negative Staphylococcus (GC 4551) (Staphylococcus sp.; [3]): 1 µg/mL (≈ 0.708 µM)
MIC Coagulase Negative Staphylococcus (GC 6257) (Staphylococcus sp.): <0.5 µg/mL
MIC Coagulase Negative Staphylococcus (GC 6257) (Staphylococcus sp.; [3]): <0.5 µg/mL
MIC Streptococcus agalactiae (GC 4564) (Streptococcus sp.): <0.5 µg/mL
MIC Streptococcus pneumoniae (GC 1894) (Streptococcus sp.): <0.5 µg/mL
MIC Streptococcus pneumoniae (GC 4565) (Streptococcus sp.): 1 µg/mL (≈ 0.708 µM)
MIC Streptococcus pneumonine (ATCC 6301) (Streptococcus sp.): <0.5 µg/mL
MIC Streptococcus pyogenes (GC 4563) (Streptococcus sp.): <0.5 µg/mL
median effective dose (ED50), Enterococcus faecalis (GC 6189) [1]: 0.41 mg/kg
median effective dose (ED50), Staphylococcus aureus-SMITH (GC 4543) [2]: 0.19 mg/kg
